Read-outs that look alike come from different tables or passages of the source.
Experiments:
Yoshida sarcoma cells [1] = experiment: Antitumor effect on subcutaneously transplanted Yoshida sarcoma (Pharmacological Test Example 1); type: in vivo, rat (male Donryu/CRJ strain); details: oral; for ED50: Rattus norvegicus, YOSHIDA, once a day for 7 consecutive days from 24 h after transplantation, 8th day, read-out: ED50 (effective dose for achieving 50% inhibition of tumor growth); for T.I. (therapeutic index = BWC50/ED50): once a day for 7 consecutive days
Protocol: The compounds of the present invention were tested for antitumor effect.
Rat-transplantable tumor, Yoshida sarcoma cells (2×10^4) were subcutaneously transplanted in the back of male Donryu/CRJ strain rats (weighing 150 to 165 g). The test compounds were suspended in a 0.5% aqueous solution of hydroxypropylmethyl cellulose. Twenty-four hours after the transplantation, each suspension was orally administered to rats (7 rats in each group) in an amount of 1.0 ml per 100 g of rats' body weight once a day for 7 consecutive days. Only a solution of hydroxypropylmethyl cellulose containing no test compound was orally administered to the control group in an amount of 1.0 ml/100 g rats' body weight once a day for 7 consecutive days starting 24 hours after the transplantation.
The rats were sacrificed on the 8th day after the transplantation and their tumors were extirpated. The tumors were weighed to calculate an average tumor weight at each dose. The results were compared between the treated group and the control group. An effective dose (ED50) for achieving 50% inhibition of tumor growth was determined from the dose-tumor reduction curve. A dose of 50% inhibition of body weight gain (BWC50)was determined from the dose-body weight change curve. The therapeutic index (T.I.=BWC50 /ED50) was also determined.

[2] = Inhibition of body weight gain in Yoshida sarcoma-bearing rats (Pharmacological Test Example 1); parameters: species or system rat (male Donryu/CRJ strain); details: rat, in vivo
[3] = tested on: human kidney cancer strain, JRC-11; experiment: Tumor growth inhibition, nude rat-transplantable human kidney cancer strain JRC-11 (Pharmacological Test Example 2(a)); type: in vivo, human tumor in male F344/N Jcl-rnu nude rat; details: once a day for 14 consecutive days
Description: (§1) (a) A tumor piece (about 2 mm^3) of nude rat-transplantable human kidney cancer strain, JRC-11, was subcutaneously transplanted in the armpit of each male F344/N Jcl-rnu nude rat. The treatment of rats (7 rats in each group) started when the rats' tumors grew to an estimated volume of 250 mm^3 as calculated by an equation
wherein L is the length of the tumor and W is the width of the tumor, each being measured by calipers. The treated group (rats to be treated with the test compounds) and the control group were tested under equal conditions concerning the mean value of tumor volume and standard deviation. The test compounds were suspended in a 0.5% aqueous solution of hydroxypropylmethyl cellulose. Each suspension was orally administered to rats in an amount of 1.0 ml per 100 g of rats' body weight once a day for 14 consecutive days. Only a solution of hydroxypropylmethyl cellulose containing no test compound was orally administered to the control group in an amount of 1.0 ml per 100 g rats' body weight once a day for 14 consecutive days.
(§2) A ratio of tumor growth of each rat was calculated from two tumor volumes on the first day of administration and on the day following the last administration. A mean ratio of tumor growth of the group (T) or the control group (C) was calculated from said ratio. Then, a tumor growth inhibition ratio (%) was calculated by the following equation: […]

[4] = tested on: human stomach cancer strain, H-81; experiment: Tumor growth inhibition, nude rat-transplantable human stomach cancer strain H-81 (Pharmacological Test Example 2(b)); type: in vivo, human tumor in male F344/N Jcl-rnu nude rat; details: once a day for 14 consecutive days
Description: as §1
wherein L is the length of the tumor and W is the width of the tumor, each being measured by calipers. The treated group (rats to be treated with the test compounds) and the control group were tested under equal conditions concerning the mean value of tumor volume and standard deviation. The test compounds were suspended in a 0.5% aqueous solution of hydroxypropylmethyl cellulose. […]
as §2
(b) The same experiment as in (a) was conducted except that a nude rat-transplantable human stomach cancer strain, H-81, was used in place of the nude rat-transplantable human kidney cancer strain, JRC-11. A tumor growth inhibition ratio was calculated.

Yoshida sarcoma cells [5] = experiment: Antitumor effect on subcutaneously transplanted Yoshida sarcoma (Pharmacological Test Example 1); type: in vivo, rat (male Donryu/CRJ strain); details: for ED50: Rattus norvegicus, YOSHIDA, iv, read-out: ED50 (effective dose for achieving 50% inhibition of tumor growth)
tumor cells = details: in vitro tests; cited from earlier work
[6] = under the influence of pyrimidine nucleoside phosphorylase; cited from earlier work
[7] = CVI: continuous intravenous drip injection

| SMILES | ED50 (Yoshida sarcoma cells [1]) | T.I. (therapeutic index = BWC50/ED50) (Yoshida sarcoma cells [1]) | TD50 ([2]; po) | also measured |
| --- | --- | --- | --- | --- |
| CCCOc1nc(=O)n([C@H]2C[C@H](OCc3ccc(F)cc3F)[C@@H](CO)O2)cc1F [Compound 7] | 7.5 mg/kg | 2.4 | 18 mg/kg |  |
| CCCOc1nc(=O)n([C@H]2C[C@H](OCc3ccc(Cl)cc3Cl)[C@@H](CO)O2)cc1F [Compound 12] | 3 mg/kg | 5.3 | 16 mg/kg |  |
| CCOc1nc(=O)n([C@H]2C[C@H](OCc3ccc(Cl)cc3F)[C@@H](CO)O2)cc1F [Compound 13, 3'-O-(4-chloro-2-fluorobenzyl)-2'-deoxy-4-O-ethyl-5-fluorouridine] |  |  |  | Inhibition ratio (%) (tumor growth) ([3]; 3.75 mg/kg oral): 67%; Inhibition ratio (%) (tumor growth) ([3]; 7.5 mg/kg oral): 73%; Inhibition ratio (%) (tumor growth) ([4]; 3.75 mg/kg oral): 74%; Inhibition ratio (%) (tumor growth) ([4]; 7.5 mg/kg oral): 79% |
| CCCOc1nc(=O)n([C@H]2C[C@H](O)[C@@H](CO)O2)cc1F [Comparative Compound 2, 2'-deoxy-4-O-n-propyl-5-fluorouridine] | 34 mg/kg | 1.1 | 37 mg/kg |  |
| O=c1[nH]c(=O)n([C@H]2C[C@H](OCc3ccc(Cl)cc3F)[C@@H](CO)O2)cc1F [Comparative Compound 1, 3'-O-(4-chloro-2-fluorobenzyl)-2'-deoxy-5-fluorouridine] | 7.5 mg/kg | 1.1 | 8.5 mg/kg |  |
| CCCOc1nc(=O)n([C@H]2C[C@H](OCc3ccc(Cl)cc3F)[C@@H](CO)O2)cc1F [Compound 3] | 4 mg/kg | 3.5 | 14 mg/kg |  |
| CCCCC(=O)OC[C@H]1O[C@@H](n2cc(F)c(OCc3ccc(F)cc3)nc2=O)C[C@@H]1OC(=O)CCCC [Comparative Compound 3, 2'-deoxy-4-O-(4-fluorobenzyl)-3',5'-di-O-n-pentanoyl-5-fluorouridine] | > 40 mg/kg | < 1.0 | 40 mg/kg |  |
| O=c1[nH]c(=O)n([C@H]2C[C@H](O)[C@@H](CO)O2)cc1F [FdUrd, 2'-deoxy-5-fluorouridine] |  |  |  | TD50 ([2]; iv, CVI: continuous intravenous drip injection, read-out: BWC50 (dose of 50% inhibition of body weight gain)): 0.7 mg/kg; TD50 ([2]; iv, iv: intravenous injection, read-out: BWC50 (dose of 50% inhibition of body weight gain)): 60 mg/kg; T.I. (therapeutic index = BWC50/ED50) (Yoshida sarcoma cells [5]; [7]): 0.88; ED50 (Yoshida sarcoma cells [5]; [7]): 0.8 mg/kg; ED50 (Yoshida sarcoma cells [5]; iv: intravenous injection): 44 mg/kg; T.I. (therapeutic index = BWC50/ED50) (Yoshida sarcoma cells [5]; iv: intravenous injection): 1.36; inhibition of the growth of tumor cells (tumor cells): significantly inhibits the growth of tumor cells; therapeutic effect in vivo [6]: can not produce a satisfactory therapeutic effect |
